These results are taken from patent US20240180139A1, “SOLVENT FOR INSECT REPELLENT ACTIVE INGREDIENT AND INSECT REPELLENT SYSTEM USING SAME” (Thermacell Repellents, Inc., priority 2021, published 2024).

Where two headings read alike, the source gives them in different places.

Data set [1] is described as follows: solubility of pyrethroid active ingredients in glycol solvents. From the text: In the development of active ingredient and solvent formulations, glycols, like glycol-related solvents, have physical and chemical characteristics that would not be considered an aspiration hazard. Evaluations of a range of glycol and modified glycol solvents also involved consideration of a variety of materials in contact with these solvents. […] In addition to considerations of the device, solubility of the active ingredients is a significant consideration on several levels. […] Considerations of not only the solvent material but the concentration levels of particular active ingredients ae necessary to create an efficacious formula compatible with heated repeller devices. […] Incorporating active ingredients at such high levels creates additional solubility challenges which further reduces suitable active ingredient candidates.

Data set [2] can be described thus: release / vaporization rate through heated wick of dispensing device. In kind it is physicochemical. The conditions noted are these: relative to metofluthrin and transfluthrin, in certain test conditions. The text has this: Once candidate materials are identified, considerations of whether release rates relative to the selected glycols would be sufficient to deliver good spatial mosquito repellency. […] In one embodiment, an approximate 70:30 solvent ratio of two solvents is provided.

In a further data set the test system is mosquitoes. As to the kind of experiment: outdoor spatial mosquito repellency. The text has this: Once candidate materials are identified, considerations of whether release rates relative to the selected glycols would be sufficient to deliver good spatial mosquito repellency. […] In one embodiment, an approximate 70:30 solvent ratio of two solvents is provided. In another aspect, the solvent ratio may be a ratio range such as 60-70:40-30, or 65-70:35-30, wherein the sum of specific glycol amounts totals to 100.

Consider `OCCO` [ethylene glycol], for which, in data set [1] (some of the insect repellents, particularly prallethrin (FIG. 6)), the “solvent quality for insect repellents” value is “not good solvents”.
For `OCC(O)CO` [glycerol], the release rate capacity entry in data set [2] was “limited release rate capacity”.
On to `C/C=C/C1C(C(=O)OCc2c(F)c(F)c(COC)c(F)c2F)C1(C)C` (centres unmarked) [metofluthrin], for which the “zone of mosquito repellency” value with mosquitoes (glycol as solvent, 3-4 Watt heating element) was 20 foot. Further, the “active ingredient concentration in the formula needed for sufficient outdoor mosquito repellency” value in the data set on mosquitoes (outdoors) turned out to be 4%.
For the compound `CC(O)CO` (centres unmarked) [propylene glycol], in data set [1], the “solvent quality for insect repellents” value is on record as “not good solvents”.
